According to patent US5441941A, “1,2-dihydroellipticines with activity against CNS specific cancer” (The United States of America as represented by the …, priority 1993, dated 1995):

Assays:
[1] = tested on: SNB-75; experiment: NCI in vitro screen, SRB percent growth, CNS Cancer
[2] = tested on: UO-31; experiment: NCI in vitro screen, SRB percent growth, Renal Cancer
[3] = tested on: CAKI-1; experiment: as above
[4] = tested on: SW-620; experiment: cells; conditions: Homo sapiens
[5] = tested on: NCI-H23; experiment: NCI in vitro screen, SRB percent growth, Non-Small Cell Lung Cancer
[6] = tested on: NCI-H460; experiment: as above
[7] = tested on: SK-MEL-5; experiment: NCI in vitro screen, SRB percent growth, Melanoma
[8] = tested on: SNB-19; experiment: NCI in vitro screen, SRB percent growth, CNS Cancer
[9] = tested on: LXFL 529; experiment: cells; conditions: Homo sapiens
[10] = tested on: HT29; experiment: NCI in vitro screen, SRB percent growth, Colon Cancer
[11] = tested on: SF-295; experiment: NCI in vitro screen, SRB percent growth, CNS Cancer
[12] = tested on: MALME-3M; experiment: NCI in vitro screen, SRB percent growth, Melanoma
[13] = tested on: SK-MEL-28; experiment: NCI in vitro screen, SRB percent growth, Melanoma
[14] = tested on: SNB-78; experiment: NCI in vitro screen, SRB percent growth, CNS Cancer
[15] = tested on: HCT-15; experiment: NCI in vitro screen, SRB percent growth, Colon Cancer
[16] = tested on: Human tumor cell lines; experiment: NCI in vitro screen, overall result; conditions: Tables I and II
[17] = tested on: SK-MEL-2; experiment: NCI in vitro screen, SRB percent growth, Melanoma
[18] = Log10 Concentration -4.0, 100 µM
[19] = Log10 Concentration -7.0, 0.1 µM
[20] = SW-620, read-out: Percent Growth
[21] = LXFL 529, read-out: Percent Growth

Cc1ccc2[nH]c3c(C)c4c(c(C)c3c2c1)CN(C)C=C4 [Formula XI]
Percent Growth [1, 18]: -97% | Percent Growth ([1]; Log10 Concentration -5.0): -72% | Percent Growth ([1]; Log10 Concentration -6.0, 1 µM): 20% | Percent Growth [1, 19]: 109% | Percent Growth ([1]; Log10 Concentration -8.0): 110% | TGI ([1]; PG=0): 1.66 µM | GI50 ([1]; PG=+50): 0.462 µM | CC50 ([1]; read-out: LC-50, PG=-50): 5.75 µM | Percent Growth [2, 18]: -94% | Percent Growth ([2]; Log10 Concentration -5.0): 36% | Percent Growth ([2]; Log10 Concentration -6.0, 1 µM): 72% | Percent Growth [2, 19]: 76% | Percent Growth ([2]; Log10 Concentration -8.0): 103% | TGI ([2]; PG=0): 18.8 µM | GI50 ([2]; PG=+50): 3.99 µM | CC50 ([2]; read-out: LC-50, PG=-50): 45.7 µM | Percent Growth [3, 18]: -89% | Percent Growth ([3]; Log10 Concentration -6.0, 1 µM): 56% | Percent Growth [3, 19]: 106% | Percent Growth ([3]; Log10 Concentration -8.0): 116% | TGI ([3]; PG=0): 5.89 µM | GI50 ([3]; PG=+50): 1.21 µM | CC50 ([3]; read-out: LC-50, PG=-50): 28.8 µM | GI50 ([4]; SW-620): 0.279 µM | CC50 ([4]; SW-620, read-out: LC-50): 28.6 µM | activity at 0.01 µM [4, 20]: 89% | activity at 0.1 µM [4, 20]: 76% | activity at 1 µM [4, 20]: 18% | activity at 10 µM [4, 20]: -21% | activity at 100 µM [4, 20]: -85% | IC (TGI) ([4]; SW-620, read-out: TGI): 2.87 µM | Percent Growth [5, 18]: -85% | Percent Growth ([5]; Log10 Concentration -5.0): -75% | Percent Growth ([5]; Log10 Concentration -6.0, 1 µM): 42% | Percent Growth [5, 19]: 97% | Percent Growth ([5]; Log10 Concentration -8.0): 95% | TGI ([5]; PG=0): 2.29 µM | GI50 ([5]; PG=+50): 0.668 µM | CC50 ([5]; read-out: LC-50, PG=-50): 6.15 µM | Percent Growth [6, 18]: -85% | Percent Growth ([6]; Log10 Concentration -5.0): 8% | Percent Growth ([6]; Log10 Concentration -6.0, 1 µM): 78% | Percent Growth [6, 19]: 91% | Percent Growth ([6]; Log10 Concentration -8.0): 99% | TGI ([6]; PG=0): 12.1 µM | GI50 ([6]; PG=+50): 2.51 µM | CC50 ([6]; read-out: LC-50, PG=-50): 42.1 µM | Percent Growth [7, 18]: -90% | Percent Growth ([7]; Log10 Concentration -5.0): -79% | Percent Growth ([7]; Log10 Concentration -6.0, 1 µM): 77% | Percent Growth [7, 19]: 94% | Percent Growth ([7]; Log10 Concentration -8.0): 92% | TGI ([7]; PG=0): 3.11 µM | GI50 ([7]; PG=+50): 1.49 µM | CC50 ([7]; read-out: LC-50, PG=-50): 6.49 µM | Percent Growth [8, 18]: -57% | Percent Growth ([8]; Log10 Concentration -5.0): -51% | Percent Growth ([8]; Log10 Concentration -6.0, 1 µM): 48% | Percent Growth [8, 19]: 97% | Percent Growth ([8]; Log10 Concentration -8.0): 104% | TGI ([8]; PG=0): 3.04 µM | GI50 ([8]; PG=+50): 0.897 µM | CC50 ([8]; read-out: LC-50, PG=-50): 9.78 µM | GI50 ([9]; LXFL 529): 0.353 µM | CC50 ([9]; LXFL 529, read-out: LC-50): 9.23 µM | activity at 0.01 µM [9, 21]: 78% | activity at 0.1 µM [9, 21]: 68% | activity at 1 µM [9, 21]: 35% | activity at 10 µM [9, 21]: -53% | activity at 100 µM [9, 21]: -84% | IC (TGI) ([9]; LXFL 529, read-out: TGI): 2.51 µM | Percent Growth [10, 18]: -93% | Percent Growth ([10]; Log10 Concentration -5.0): 4% | Percent Growth ([10]; Log10 Concentration -6.0, 1 µM): 82% | Percent Growth [10, 19]: 95% | Percent Growth ([10]; Log10 Concentration -8.0): 99% | TGI ([10]; PG=0): 11.1 µM | GI50 ([10]; PG=+50): 2.57 µM | CC50 ([10]; read-out: LC-50, PG=-50): 36 µM | Percent Growth [11, 18]: -91% | Percent Growth ([11]; Log10 Concentration -5.0): -31% | Percent Growth ([11]; Log10 Concentration -6.0, 1 µM): 23% | Percent Growth [11, 19]: 87% | Percent Growth ([11]; Log10 Concentration -8.0): 92% | TGI ([11]; PG=0): 2.68 µM | GI50 ([11]; PG=+50): 0.381 µM | CC50 ([11]; read-out: LC-50, PG=-50): 20.7 µM | Percent Growth [12, 18]: -86% | Percent Growth ([12]; Log10 Concentration -5.0): -40% | Percent Growth ([12]; Log10 Concentration -6.0, 1 µM): 78% | Percent Growth [12, 19]: 115% | Percent Growth ([12]; Log10 Concentration -8.0): 113% | TGI ([12]; PG=0): 4.58 µM | GI50 ([12]; PG=+50): 1.72 µM | CC50 ([12]; read-out: LC-50, PG=-50): 16.4 µM | Percent Growth [13, 18]: -95% | Percent Growth ([13]; Log10 Concentration -5.0): -61% | Percent Growth ([13]; Log10 Concentration -6.0, 1 µM): 108% | Percent Growth [13, 19]: 115% | Percent Growth ([13]; Log10 Concentration -8.0): 114% | TGI ([13]; PG=0): 4.37 µM | GI50 ([13]; PG=+50): 2.21 µM | CC50 ([13]; read-out: LC-50, PG=-50): 8.62 µM | Percent Growth [14, 18]: -75% | Percent Growth ([14]; Log10 Concentration -5.0): -33% | Percent Growth ([14]; Log10 Concentration -6.0, 1 µM): 38% | Percent Growth [14, 19]: 128% | Percent Growth ([14]; Log10 Concentration -8.0): 131% | TGI ([14]; PG=0): 3.41 µM | GI50 ([14]; PG=+50): 0.738 µM | CC50 ([14]; read-out: LC-50, PG=-50): 25.2 µM | Percent Growth [15, 18]: -87% | Percent Growth ([15]; Log10 Concentration -5.0): 76% | Percent Growth ([15]; Log10 Concentration -6.0, 1 µM): 95% | Percent Growth [15, 19]: 102% | Percent Growth ([15]; Log10 Concentration -8.0): 111% | TGI ([15]; PG=0): 29.3 µM | GI50 ([15]; PG=+50): 14.5 µM | CC50 ([15]; read-out: LC-50, PG=-50): 59.6 µM | effect against many kinds of cancer [16]: effective against many kinds of cancer | Percent Growth [17, 18]: -94% | Percent Growth ([17]; Log10 Concentration -5.0): -92% | Percent Growth ([17]; Log10 Concentration -6.0, 1 µM): 94% | Percent Growth [17, 19]: 103% | Percent Growth ([17]; Log10 Concentration -8.0): 98% | TGI ([17]; PG=0): 3.2 µM | GI50 ([17]; PG=+50): 1.72 µM | CC50 ([17]; read-out: LC-50, PG=-50): 5.96 µM
